# Read-outs that look alike come from different tables or passages of the source.
# What was measured:
# U251 cell line = test: Annexin V/PI apoptosis assay by flow cytometry, U251; assay type: cell-based, human; conditions: 48 h
# Experimental: (§1) In 6-well plates, 1×10^5 cells/mL were added into each well. After 24 h, sequential concentrations of DMSO and 4 based were administered and the plates were incubated for 48 h. The supernatant and adherent cells were collected and centrifugated. Each dose was done in triplicate, with each sample composing two wells. For apoptosis analysis, the supernatant was discarded after centrifugation and the pellet washed with PBS twice. Then, BD Annexin V-FITC/PI used to stain the cells for analysis via flow cytometry on the Gallios machine. For cell cycle analysis, after washing with PBS, cells were fixed with ethanol and incubated. They, were treated with RNase enzyme and analyzed.
# pre-miR-10b = test: RT-qPCR of precursor miR-10b; assay type: cell-based, human; conditions: normalized to U6, vs DMSO
# Experimental: Potential small molecule miRNA inhibitors were tested in MCF7 cells, a metastatic cell line (MM231) and an HCC cell line (HepG2) through RT-qPCR. Cells were seeded in 12-well plates 24 h before treatments at a confluence of 50-60%. They were treated at a concentration of 10 μM linifanib (positive control) or DMSO (negative control), and RNA was collected after 24 and 48 h. MicroRNA expression was tested using TaqMan microRNA assay (Applied Biosystems). The cDNA was synthesized using TaqMan Reverse Transcription Reagents kit (Applied Biosystems) and employed for quantitative RT-qPCR analysis together with TaqMan probes and SsoFastSupermix (Bio-rad). Primers and probes were purchased for hsa-miR-10b, hsa-pri-miR-10b, U6, and U48 snRNA that was used as an internal control.
# To detect the levels of the precursor sequences, cDNA was synthesized using the SuperScript III cDNA kit (Invitrogen). Diluted cDNA was used for RT-qPCR analysis using iQ SYBR Green Supermix (Bio-Rad) with primers designed by in-house. Experiments were performed in triplicate; treated samples were compared to the DMSO-treated controls and normalized to the internal control. Relative expression levels were calculated using the 2-ΔCt method.
# AsPC1 cell line = test: Migration assay, AsPC1; assay type: cell-based, human; conditions: vs DMSO
# [1] = tested on: U251 brain cancer cell line; test: Cell cycle analysis via flow cytometry; assay type: cell-based, human; conditions: 5 μM
# Experimental: as §1
# miR-10b = test: Luciferase reporter assay of miR-10b inhibition, MDA-MB-231 cells; assay type: cell-based; conditions: Homo sapiens, MDA-MB-231, 48 h
# Excerpt: To identify miR-10b inhibitors, a luciferase reporter system was designed with complementary oligonucleotides for miR-10b.This luciferase reporter would repress Renilla luciferase signal in the presence of a functional mature miR-10b. However, in the presence of a small molecule that can inhibit mature miR-10b expression or affect its downstream function, the luciferase expression is restored again.
# The PsiCHECK™-2 luciferase reporter vector was acquired from Promega™, Complementary oligonucleotides for hsa-miR-10b were designed based on the mature miRNA sequence and obtained from Thermo Fisher Scientific. In the design of the microRNA target sequence, several base pairs were added to have two different restriction sites recognizable by the enzyme SgfI at one side, and PmeI on the other (present in the vector as well). In addition, the insert was designed with a restriction site for SacI enzyme in order to have an additional site to digest the vector when monitoring colonies for the presence/absence of the insert. The designed oligonucleotides were annealed as follows: Complementary strands were mixed at a 1:1 molar ratio in a micro centrifuge tube. The mixture was diluted to a final concentration of 1 pmol/μl with a buffer solution of 10 mM Tris, 1 mM EDTA, and 50 mM NaCl (pH 8.0). Mixes were incubated at 95° C. for 5 min, and then the heat was reduced gradually for 70 min, until reaching 4° C. The annealed oligonucleotides were digested along with the PsiCHECK™2 vector with SgfI and PmeI and ligated at the 3′-UTR (downstream) of the Renilla luciferase reporter gene in the PsiCHECK™-2vector. Insert sequences were further confirmed in two ways: enzymatic digestion and sequencing.
# MCF7 cells were seeded 24 h prior to transfection in 96 well plates (2.0×10^4 cells/well). For testing the sensitivity of the assay, antagomiRs and pre-miRs against miR-10b were used at a final concentration of 100 nM. For testing small molecule miRNA inhibitors, the compounds of interest were added to a final concentration of 10 μM. The assay was done in MCF7 or MDA-MB-231 cells at approximately 60% confluence using Lipofectamine in Opti-Mem media with the final vector concentration of 250 ng/mL. All transfections were performed in triplicate for statistical analysis. The cells were incubated at 37° C. for 6 h, followed by replacement of the transfected media with fresh media. After 48 h incubation, the media was removed, and cells were lysed and assayed with a Dual Luciferase Assay Kit (Promega) using a Vi-Tech luminometer. The ratio of Renilla to firefly luciferase expression was calculated for each of the triplicates.
# Dicer = test: Western blot, Dicer expression; assay type: cell-based, human; conditions: AsPC1, AGS, U251, LN229
# Experimental: (§2) Proteins are collected from cultured cells and lysed with 10× Lysis Buffer (Cell Signaling) freshly supplemented with a complete protease inhibitor cocktail and phosphatase inhibitors (Sigma). Bradford assay is used to measure protein concentration. Proteins are separated by polyacrylamide gel (Bio-rad) electrophoresis and were transferred to a 0.2 μm nitrocellulose membrane (Bio-rad). Quantification of protein expression was conducted using the image analysis software ImageJ.
# PTEN [2] = test: Western blot, PTEN expression; assay type: cell-based, human
# Experimental: as §2
# PTEN [3] = test: Proteomics (RPPA), PTEN expression; assay type: cell-based, human; parameters: dose or concentration left out as unconfirmed; conditions: U251
# Experimental: Proteomics analysis was conducted at the Reverse Phase Protein Array Core facility at MD Anderson Cancer Center. Briefly, controls and treated samples were analyzed in triplicate for 486 unique antibodies. The outputs were then normalized for protein loading and transformed to the linear value, and the normalized data was logy transformed (log2(x+1)) and sorted by FDR-adjusted p-values with a significance level of p<0.05. Differentially expressed proteins between groups were identified using the moderated t-test from LIMMA package. […] Analyses and graphical representations were carried out in R. When preparing the data for analysis, the loge fold change was calculated and adjusted p-value was used for analysis. Gene symbols were converted using the DAVID bioinformatics resource and the clusterProfiler data visualization and analysis package was used for pathway enrichment analysis. For pathway analysis, the Hallmark gene set and Gene Ontology was used for gene set and pathway enrichment.
# AGS gastric cell line = test: Annexin V/PI apoptosis assay by flow cytometry, AGS; assay type: cell-based, human; conditions: up to 10 μM, 48 h
# Experimental: as §1
# [4] = Table 5, MDA-MB-231, 10 μM compound, vs negative control (DMSO), mean of triplicate, read-out: n-fold increase in luciferase expression, Mean
# [5] = Table 5, MDA-MB-231, 10 μM compound, vs negative control (DMSO), replicate #1, read-out: n-fold increase in luciferase expression, #1
# [6] = Table 5, MDA-MB-231, 10 μM compound, vs negative control (DMSO), replicate #2, read-out: n-fold increase in luciferase expression, #2
# [7] = Table 5, MDA-MB-231, 10 μM compound, vs negative control (DMSO), replicate #3, read-out: n-fold increase in luciferase expression, #3
# [8] = Table 7, MDA-MB-231, second biological replicant, 10 μM compound, mean of triplicate, read-out: n-fold increase in luciferase expression, Mean
# [9] = Table 7, MDA-MB-231, second biological replicant, 10 μM compound, replicate #1, read-out: n-fold increase in luciferase expression, #1
# [10] = Table 7, MDA-MB-231, second biological replicant, 10 μM compound, replicate #2, read-out: n-fold increase in luciferase expression, #2
# [11] = Table 7, MDA-MB-231, second biological replicant, 10 μM compound, replicate #3, read-out: n-fold increase in luciferase expression, #3
Compound,increase in total apoptotic cells compared to control (U251 cell line; 5 μM),total apoptotic cells at 10 μM compared with 5 μM (U251 cell line; 10 μM),expression of pre-miR-10b (pre-miR-10b; AGS gastric cell line),expression of pre-miR-10b (pre-miR-10b; AsPC1 pancreatic cell line),migration (AsPC1 cell line),cell cycle phase distribution [1],fold induction at 10 µM (miR-10b; [4]),fold induction at 10 µM (miR-10b; [5]),fold induction at 10 µM (miR-10b; [6]),fold induction at 10 µM (miR-10b; [7]),fold induction at 10 µM (miR-10b; [8]),fold induction at 10 µM (miR-10b; [9]),fold induction at 10 µM (miR-10b; [10]),fold induction at 10 µM (miR-10b; [11]),Dicer expression (Western blot) (Dicer),PTEN expression (Western blot) (PTEN [2]; LN229 brain cancer cell line),PTEN expression (Western blot) (PTEN [2]; U251 brain cancer cell line),PTEN expression (proteomics) (PTEN [3]),apoptotic cells (AGS gastric cell line)
"Cc1ccc(F)c(NC(=O)Nc2ccc(-c3cccc4cn[nH]c34)cc2)c1 [Example 4, 1-(4-(1H-indazol-7-yl)phenyl)-3-(2-fluoro-5-methylphenyl)urea]",approximately 4.5 fold,approximately the same,increasing precursor miRNA transcript,increasing precursor miRNA transcript,decreased migration,clear increase shown at the G2/M phase,1.43,1.36,1.7,1.24,1.55,1.81,1.8,1.05,little to no variation,upregulation of PTEN,upregulation of PTEN,significantly upregulated,gradual increase
"Cc1ccc(F)c(NC(=O)Nc2ccc(-c3cncnc3)cc2)c1 [Example 2, 1-(2-fluoro-5-methylphenyl)-3-(4-(pyrimidin-5-yl)phenyl)urea]",,,increased expression of pre-miR-10b,increased expression of pre-miR-10b,,,1.58,1.45,1.9,1.38,2.13,2.38,1.88,2.15,,,,,
